# Assay results as given in the kinase profiling compilation of Christmann-Franck et al. (2016).
# Key:
# Assay in all cases: KINOMEscan competition binding
# Settings in all cases: compound 10.0 µM
# FLT1 (human) = FLT1 (human) (UniProt P17948)
# CSNK2A1 (human) = CSNK2A1 (human) (UniProt P68400)
# STK24 (human) = STK24 (human) (UniProt Q9Y6E0)
# DCLK3 (human) = DCLK3 (human) (UniProt Q9C098)
# EGFR (human) = EGFR (human) (UniProt P00533)
# KIT (human) = KIT (human) (UniProt P10721)
# MAPK14 (human) = MAPK14 (human) (UniProt Q16539)
# ACVR1 (human) = ACVR1 (human) (UniProt Q04771)
# CSNK1G3 (human) = CSNK1G3 (human) (UniProt Q9Y6M4)
# CAMK2B (human) = CAMK2B (human) (UniProt Q13554)
# STK32C (human) = STK32C (human) (UniProt Q86UX6)
# AURKA (human) = AURKA (human) (UniProt O14965)
# SIK2 (human) = SIK2 (human) (UniProt Q9H0K1)
# EPHA2 (human) = EPHA2 (human) (UniProt P29317)
# RPS6KA3 KD1 (human) = RPS6KA3 KD1 (human) (UniProt P51812)
# FRK (human) = FRK (human) (UniProt P42685)
# STK4 (human) = STK4 (human) (UniProt Q13043)
# CIT (human) = CIT (human) (UniProt O14578)
# MYLK2 (human) = MYLK2 (human) (UniProt Q9H1R3)
# IGF1R (human) = IGF1R (human) (UniProt P08069)
# PAK2 (human) = PAK2 (human) (UniProt Q13177)
# [1] = system: KIT (human), P10721 [V559D]
# TNIK (human) = TNIK (human) (UniProt Q9UKE5)
# MUSK (human) = MUSK (human) (UniProt O15146)
# YES1 (human) = YES1 (human) (UniProt P07947)
# BMPR1B (human) = BMPR1B (human) (UniProt O00238)
# RPS6KA4 KD1 (human) = RPS6KA4 KD1 (human) (UniProt O75676)
# MAP3K9 (human) = MAP3K9 (human) (UniProt P80192)
# ZAP70 (human) = ZAP70 (human) (UniProt P43403)
# CDC42BPG (human) = CDC42BPG (human) (UniProt Q6DT37)
# MAP2K4 (human) = MAP2K4 (human) (UniProt P45985)
# PTK6 (human) = PTK6 (human) (UniProt Q13882)
# [2] = system: EGFR (human), P00533 [G719C]
# RIOK1 (human) = RIOK1 (human) (UniProt Q9BRS2)
# MYLK4 (human) = MYLK4 (human) (UniProt Q86YV6)
# DAPK2 (human) = DAPK2 (human) (UniProt Q9UIK4)
# CAMK2G (human) = CAMK2G (human) (UniProt Q13555)
# [3] = system: EGFR (human), P00533 [752-759 del]
# MAP3K3 (human) = MAP3K3 (human) (UniProt Q99759)
# MAP3K7 (human) = MAP3K7 (human) (UniProt O43318)
# CDK5 (human) = CDK5 (human) (UniProt Q00535)
# PIM2 (human) = PIM2 (human) (UniProt Q9P1W9)
# Chain of MAP2K4 (human) (P45985 whole entry, looked up): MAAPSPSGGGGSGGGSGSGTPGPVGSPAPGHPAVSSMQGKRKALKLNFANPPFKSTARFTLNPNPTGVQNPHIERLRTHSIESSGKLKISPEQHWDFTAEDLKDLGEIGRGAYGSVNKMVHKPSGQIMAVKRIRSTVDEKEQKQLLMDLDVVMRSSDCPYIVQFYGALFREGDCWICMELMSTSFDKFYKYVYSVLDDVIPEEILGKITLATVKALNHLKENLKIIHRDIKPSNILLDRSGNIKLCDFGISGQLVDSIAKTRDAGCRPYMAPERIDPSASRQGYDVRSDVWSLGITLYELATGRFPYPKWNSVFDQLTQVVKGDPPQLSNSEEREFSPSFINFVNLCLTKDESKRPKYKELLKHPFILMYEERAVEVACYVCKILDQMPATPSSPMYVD
# Chain of MAP3K3 (human) (Q99759 whole entry, looked up): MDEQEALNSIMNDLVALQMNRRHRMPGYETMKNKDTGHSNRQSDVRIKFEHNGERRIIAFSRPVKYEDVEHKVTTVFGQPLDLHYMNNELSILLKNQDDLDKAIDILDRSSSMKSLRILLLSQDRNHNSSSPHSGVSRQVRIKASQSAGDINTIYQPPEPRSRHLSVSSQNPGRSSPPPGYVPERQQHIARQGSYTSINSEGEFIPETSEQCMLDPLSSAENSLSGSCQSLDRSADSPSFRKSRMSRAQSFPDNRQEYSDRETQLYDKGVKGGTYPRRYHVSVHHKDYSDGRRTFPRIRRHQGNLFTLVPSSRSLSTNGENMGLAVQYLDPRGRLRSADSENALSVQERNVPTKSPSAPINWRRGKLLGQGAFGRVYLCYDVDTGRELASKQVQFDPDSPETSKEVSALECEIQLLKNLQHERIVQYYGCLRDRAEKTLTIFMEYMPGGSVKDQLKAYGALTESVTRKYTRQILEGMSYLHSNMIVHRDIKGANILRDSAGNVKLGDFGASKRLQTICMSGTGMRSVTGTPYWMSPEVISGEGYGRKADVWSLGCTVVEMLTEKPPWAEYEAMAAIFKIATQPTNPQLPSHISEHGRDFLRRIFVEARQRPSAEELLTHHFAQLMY
# Chain of STK24 (human) (Q9Y6E0 whole entry, looked up): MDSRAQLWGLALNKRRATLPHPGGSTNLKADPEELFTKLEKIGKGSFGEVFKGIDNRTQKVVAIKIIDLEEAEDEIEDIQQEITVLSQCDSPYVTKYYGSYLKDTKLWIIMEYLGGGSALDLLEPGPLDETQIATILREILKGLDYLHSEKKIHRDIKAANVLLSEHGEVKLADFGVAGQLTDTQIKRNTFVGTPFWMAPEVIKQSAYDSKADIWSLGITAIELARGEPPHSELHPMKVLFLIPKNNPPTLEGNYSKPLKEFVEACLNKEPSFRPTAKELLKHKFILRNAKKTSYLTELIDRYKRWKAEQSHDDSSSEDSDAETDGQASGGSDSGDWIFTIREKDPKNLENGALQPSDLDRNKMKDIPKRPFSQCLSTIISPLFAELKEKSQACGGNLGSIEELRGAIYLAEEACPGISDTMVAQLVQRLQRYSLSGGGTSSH
# Chain of DAPK2 (human) (Q9UIK4 whole entry, looked up): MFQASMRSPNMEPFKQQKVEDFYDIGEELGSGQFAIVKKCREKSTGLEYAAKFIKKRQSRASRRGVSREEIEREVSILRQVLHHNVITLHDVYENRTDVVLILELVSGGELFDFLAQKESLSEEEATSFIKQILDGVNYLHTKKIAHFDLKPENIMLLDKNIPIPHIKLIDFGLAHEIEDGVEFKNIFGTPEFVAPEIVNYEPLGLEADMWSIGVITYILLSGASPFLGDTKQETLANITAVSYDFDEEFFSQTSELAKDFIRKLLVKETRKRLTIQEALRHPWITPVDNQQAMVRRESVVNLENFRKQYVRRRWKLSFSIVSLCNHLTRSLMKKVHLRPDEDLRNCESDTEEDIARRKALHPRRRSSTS
# Chain of CSNK1G3 (human) (Q9Y6M4 whole entry, looked up): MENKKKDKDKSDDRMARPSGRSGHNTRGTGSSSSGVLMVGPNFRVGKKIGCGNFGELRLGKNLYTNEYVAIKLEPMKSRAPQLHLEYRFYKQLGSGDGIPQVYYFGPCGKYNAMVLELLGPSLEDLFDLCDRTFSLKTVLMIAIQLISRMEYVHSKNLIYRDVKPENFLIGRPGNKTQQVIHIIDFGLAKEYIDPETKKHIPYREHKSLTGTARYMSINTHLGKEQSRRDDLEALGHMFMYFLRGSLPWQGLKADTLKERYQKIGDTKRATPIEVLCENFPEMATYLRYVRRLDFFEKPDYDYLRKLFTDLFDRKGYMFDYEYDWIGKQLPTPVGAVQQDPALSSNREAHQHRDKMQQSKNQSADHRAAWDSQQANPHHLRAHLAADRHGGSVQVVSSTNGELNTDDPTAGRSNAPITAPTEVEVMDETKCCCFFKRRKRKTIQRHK
# Chain of CDC42BPG (human) (Q6DT37 whole entry, looked up): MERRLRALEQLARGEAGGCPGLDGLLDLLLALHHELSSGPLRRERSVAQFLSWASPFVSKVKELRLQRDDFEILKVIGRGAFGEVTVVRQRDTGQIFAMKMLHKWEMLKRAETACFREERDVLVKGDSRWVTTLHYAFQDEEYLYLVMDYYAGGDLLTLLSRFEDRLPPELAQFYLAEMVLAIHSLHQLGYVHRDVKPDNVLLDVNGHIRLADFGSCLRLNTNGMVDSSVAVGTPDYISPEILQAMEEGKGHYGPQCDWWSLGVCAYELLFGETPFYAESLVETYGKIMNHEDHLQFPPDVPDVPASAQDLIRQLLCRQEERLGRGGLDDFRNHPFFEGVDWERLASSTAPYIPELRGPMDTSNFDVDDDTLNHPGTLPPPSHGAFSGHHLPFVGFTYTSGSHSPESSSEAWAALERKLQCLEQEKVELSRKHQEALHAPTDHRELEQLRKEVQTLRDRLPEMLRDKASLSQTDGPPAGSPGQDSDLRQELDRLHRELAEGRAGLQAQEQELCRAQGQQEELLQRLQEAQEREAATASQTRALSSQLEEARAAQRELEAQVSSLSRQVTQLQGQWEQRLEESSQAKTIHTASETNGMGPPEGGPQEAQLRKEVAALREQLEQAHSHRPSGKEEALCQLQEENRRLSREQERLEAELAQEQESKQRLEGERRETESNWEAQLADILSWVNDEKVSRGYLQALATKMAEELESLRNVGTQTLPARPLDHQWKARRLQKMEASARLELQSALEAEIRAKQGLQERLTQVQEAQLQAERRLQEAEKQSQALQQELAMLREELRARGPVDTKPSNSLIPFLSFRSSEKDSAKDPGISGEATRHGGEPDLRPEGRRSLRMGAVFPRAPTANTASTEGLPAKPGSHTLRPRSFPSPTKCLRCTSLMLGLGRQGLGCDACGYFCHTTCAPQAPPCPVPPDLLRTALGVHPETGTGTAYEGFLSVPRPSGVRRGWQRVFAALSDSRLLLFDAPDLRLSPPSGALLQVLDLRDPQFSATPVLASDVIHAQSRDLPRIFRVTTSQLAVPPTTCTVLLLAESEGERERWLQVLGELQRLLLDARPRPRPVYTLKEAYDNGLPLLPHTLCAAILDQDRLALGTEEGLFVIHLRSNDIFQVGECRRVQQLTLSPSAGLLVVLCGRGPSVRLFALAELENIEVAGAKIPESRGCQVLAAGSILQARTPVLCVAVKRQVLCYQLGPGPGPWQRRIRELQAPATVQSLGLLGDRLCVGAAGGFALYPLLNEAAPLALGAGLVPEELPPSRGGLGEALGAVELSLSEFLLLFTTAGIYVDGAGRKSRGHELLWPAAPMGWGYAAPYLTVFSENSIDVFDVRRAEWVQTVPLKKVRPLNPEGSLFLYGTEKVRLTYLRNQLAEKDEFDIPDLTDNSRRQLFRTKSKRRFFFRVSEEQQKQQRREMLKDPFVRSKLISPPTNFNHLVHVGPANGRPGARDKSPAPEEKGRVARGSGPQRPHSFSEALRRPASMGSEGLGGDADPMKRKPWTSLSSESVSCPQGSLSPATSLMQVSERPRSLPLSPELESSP
# Chain of CAMK2G (human) (Q13555 whole entry, looked up): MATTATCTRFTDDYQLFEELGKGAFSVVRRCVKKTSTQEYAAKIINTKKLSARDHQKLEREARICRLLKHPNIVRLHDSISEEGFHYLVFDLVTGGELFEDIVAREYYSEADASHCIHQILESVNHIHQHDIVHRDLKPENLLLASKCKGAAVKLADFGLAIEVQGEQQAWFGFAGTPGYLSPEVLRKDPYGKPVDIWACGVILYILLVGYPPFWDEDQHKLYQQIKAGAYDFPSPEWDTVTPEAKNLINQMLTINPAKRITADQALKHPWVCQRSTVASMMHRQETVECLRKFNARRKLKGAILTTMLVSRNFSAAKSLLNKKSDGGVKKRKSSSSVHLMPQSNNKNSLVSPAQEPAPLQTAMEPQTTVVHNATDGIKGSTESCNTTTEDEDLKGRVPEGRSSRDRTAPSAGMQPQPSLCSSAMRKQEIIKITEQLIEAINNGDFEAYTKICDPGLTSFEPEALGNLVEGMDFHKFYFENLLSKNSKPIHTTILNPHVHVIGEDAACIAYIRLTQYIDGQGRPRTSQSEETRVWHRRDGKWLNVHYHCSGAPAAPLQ
# Chain of MYLK2 (human) (Q9H1R3 whole entry, looked up): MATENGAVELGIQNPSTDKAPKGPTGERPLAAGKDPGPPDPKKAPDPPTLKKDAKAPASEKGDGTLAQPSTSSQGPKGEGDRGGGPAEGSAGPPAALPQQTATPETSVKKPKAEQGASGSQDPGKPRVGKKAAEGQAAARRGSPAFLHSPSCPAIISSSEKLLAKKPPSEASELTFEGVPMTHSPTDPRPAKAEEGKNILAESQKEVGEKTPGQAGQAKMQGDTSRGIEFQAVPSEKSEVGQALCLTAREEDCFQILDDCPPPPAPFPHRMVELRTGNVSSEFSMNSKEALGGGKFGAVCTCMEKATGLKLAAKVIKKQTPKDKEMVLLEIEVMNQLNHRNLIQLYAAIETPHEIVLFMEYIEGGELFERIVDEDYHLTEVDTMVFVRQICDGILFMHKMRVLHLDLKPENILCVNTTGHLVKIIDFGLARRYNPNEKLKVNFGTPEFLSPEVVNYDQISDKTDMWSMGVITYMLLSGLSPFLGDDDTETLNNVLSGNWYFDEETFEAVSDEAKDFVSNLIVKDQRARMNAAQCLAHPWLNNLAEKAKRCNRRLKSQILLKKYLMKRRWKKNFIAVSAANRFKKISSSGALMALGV
smiles,measurement,setting,value
CCN1CCN(Cc2ccc(NC(=O)c3ccc(C)c(/C=C/c4cnc(Nc5cc(N6CCNCC6)nc(C)n5)cn4)c3)cc2C(F)(F)F)CC1,"kinase still bound, per cent of control",FLT1 (human),27%
same,"kinase still bound, per cent of control",CSNK2A1 (human),89%
same,"kinase still bound, per cent of control",STK24 (human),30%
same,"kinase still bound, per cent of control",DCLK3 (human),87%
same,"kinase still bound, per cent of control",EGFR (human),12%
same,"kinase still bound, per cent of control",KIT (human),0.15%
same,"kinase still bound, per cent of control",MAPK14 (human),4.6%
same,"kinase still bound, per cent of control",ACVR1 (human),100%
same,"kinase still bound, per cent of control",CSNK1G3 (human),100%
same,"kinase still bound, per cent of control",CAMK2B (human),92%
same,"kinase still bound, per cent of control",STK32C (human),96%
same,"kinase still bound, per cent of control",AURKA (human),78%
same,"kinase still bound, per cent of control",SIK2 (human),61%
same,"kinase still bound, per cent of control",EPHA2 (human),5.4%
same,"kinase still bound, per cent of control",RPS6KA3 KD1 (human),43%
same,"kinase still bound, per cent of control",FRK (human),7%
same,"kinase still bound, per cent of control",STK4 (human),22%
same,"kinase still bound, per cent of control",CIT (human),0.2%
same,"kinase still bound, per cent of control",MYLK2 (human),3.8%
same,"kinase still bound, per cent of control",IGF1R (human),87%
same,"kinase still bound, per cent of control",PAK2 (human),69%
same,"kinase still bound, per cent of control",[1],0.05%
same,"kinase still bound, per cent of control",TNIK (human),1.9%
same,"kinase still bound, per cent of control",MUSK (human),5.2%
same,"kinase still bound, per cent of control",YES1 (human),1.4%
same,"kinase still bound, per cent of control",BMPR1B (human),77%
same,"kinase still bound, per cent of control",RPS6KA4 KD1 (human),100%
same,"kinase still bound, per cent of control",MAP3K9 (human),21%
same,"kinase still bound, per cent of control",ZAP70 (human),15%
same,"kinase still bound, per cent of control",CDC42BPG (human),100%
same,"kinase still bound, per cent of control",MAP2K4 (human),100%
same,"kinase still bound, per cent of control",PTK6 (human),91%
same,"kinase still bound, per cent of control",[2],1.8%
same,"kinase still bound, per cent of control",RIOK1 (human),100%
same,"kinase still bound, per cent of control",MYLK4 (human),100%
same,"kinase still bound, per cent of control",DAPK2 (human),66%
same,"kinase still bound, per cent of control",CAMK2G (human),100%
same,"kinase still bound, per cent of control",[3],6.2%
same,"kinase still bound, per cent of control",MAP3K3 (human),0.3%
same,"kinase still bound, per cent of control",MAP3K7 (human),0.75%
same,"kinase still bound, per cent of control",CDK5 (human),96%
same,"kinase still bound, per cent of control",PIM2 (human),50%
